Legend:
[1] = tested on: ulcerative colitis model (dextran sodium sulphate); test: Effect example 2: therapeutic effect on ulcerative colitis, dextran sodium sulphate model, oral gavage, 14 days; type: in vivo, C57 mice; details: for Average colon length of mice: day 14
Experimental: Thirty-five 10-week-old male C57 mice, SPF class animal house, temperature 20-26° C., humidity 40%-70%, alternating light-dark periods (12 h/12 h).
(§1) Quarantine-qualified animals with similar weights were selected for the experiment.
Mice in the blank control group were given normal drinking water throughout the experiment. The other 6 groups of mice were given drinking water containing 2% dextran sodium sulphate from day 1 to day 5, normal drinking water from day 6 to day 7, drinking water containing 2% dextran sodium sulphate from day 8 to day 12, and normal drinking water from day 13 to day 14. The experiment ended on day 14. All groups were administered by oral gavage once a day according to table 7, until the end of the experiment on day 14.
(§2) (1) The mice were weighed daily.
(2) Blood samples were collected from the orbital vein on day 14 and stored at −80° C.
(3) On day 14, the mice were sacrificed by cervical vertebra dislocation, the colon was removed and a small amount of fecal was taken from the colon and left as a sample. The colon length and colon weight were measured. A portion of the colon and the fecal sample was stored at −80° C.

[2] = tested on: ulcerative colitis model (dextran sodium sulphate); test: Effect Example 3: therapeutic effect on ulcerative colitis, dextran sodium sulphate model, oral gavage, 7 days; type: in vivo, C57 mice; details: 40 mg/kg oral gavage; for Average colon length of mice: day 7
Experimental: Fifty 10-week-old male C57 mice, SPF class animal house, temperature 20-26° C., humidity 40%-70%, alternating light-dark periods (12 h/12 h).
as §1
Mice in the blank control group were given normal drinking water throughout the experiment. The other 9 groups of mice were given drinking water containing 2% dextran sodium sulphate from day 1 to day 7. All groups were administered by oral gavage once a day according to table 10, until the end of the experiment.
as §2
(2) Blood samples were collected from the orbital vein on day 7 and stored at −80° C.
(3) On day 7, the mice were sacrificed by cervical vertebra dislocation, the colon was removed and a small amount of fecal was taken from the colon and left as a sample. The colon length and colon weight were measured. A portion of the colon and the fecal sample was stored at −80° C.

SMILES	Average weight of mice ([2]; Day 1) [g]	Average weight of mice ([2]; Day 2) [g]	Average weight of mice ([2]; Day 3) [g]	Average weight of mice ([2]; Day 4) [g]	Average weight of mice ([2]; Day 5) [g]	Average weight of mice ([2]; Day 6) [g]	Average weight of mice ([2]; Day 7) [g]	Average colon length of mice [2] [cm]	Effect on the colon length (in words) [2]	other results
CC(=O)OC[C@H]1O[C@@H](OC2=C(C)OC(=C(C)C)C2=O)[C@H](OC(C)=O)[C@@H](OC(C)=O)[C@@H]1OC(C)=O [Compound I-2, 4-O-[(2,3,4,6-tetra-O-acetyl)-β-D-glucosyl]-5-methyl-2-(1-methylethylidene)-3(2H)-furanone]	21.53	21.42	21.25	20.97	20.72	20.27	19.27	5.8	–	Average weight of mice ([1]; Day 1, treatment group 40 mg/kg oral gavage): 26.86 g; Average weight of mice ([1]; Day 2, treatment group 40 mg/kg oral gavage): 26.9 g; Average weight of mice ([1]; Day 3, treatment group 40 mg/kg oral gavage): 26.82 g; Average weight of mice ([1]; Day 4, treatment group 40 mg/kg oral gavage): 26.86 g; Average weight of mice ([1]; Day 5, treatment group 40 mg/kg oral gavage): 26.58 g; Average weight of mice ([1]; Day 6, treatment group 40 mg/kg oral gavage): 26.48 g; Average weight of mice ([1]; Day 7, treatment group 40 mg/kg oral gavage): 25.18 g; Average weight of mice ([1]; Day 8, treatment group 40 mg/kg oral gavage): 23.78 g; Average weight of mice ([1]; Day 9, treatment group 40 mg/kg oral gavage): 23.64 g; Average weight of mice ([1]; Day 10, treatment group 40 mg/kg oral gavage): 23.64 g; Average weight of mice ([1]; Day 11, treatment group 40 mg/kg oral gavage): 24.72 g; Average weight of mice ([1]; Day 12, treatment group 40 mg/kg oral gavage): 24.82 g; Average weight of mice ([1]; Day 13, treatment group 40 mg/kg oral gavage): 24.8 g; Average weight of mice ([1]; Day 14, treatment group 40 mg/kg oral gavage): 24.92 g; Average colon length of mice ([1]; treatment group 40 mg/kg oral gavage): 6.2 cm
CCOC(=O)OC[C@H]1O[C@@H](OC2=C(C)OC(=C(C)C)C2=O)[C@H](O)[C@@H](O)[C@@H]1O [Compound I-7]	21.47	21.62	21.18	20.82	20.13	20.07	19.88	5.4	–	–
CC(=O)OC[C@H]1O[C@@H](OC2=C(C)OC(=C3CCCC3)C2=O)[C@H](OC(C)=O)[C@@H](OC(C)=O)[C@@H]1OC(C)=O [Compound I-8]	21.85	21.97	21.77	21.33	20.62	20.52	20.32	6.1	can gradually restore the colon length	–
CC(=O)OC[C@H]1O[C@@H](OC2=C(C)OC(=C3CCCCC3)C2=O)[C@H](OC(C)=O)[C@@H](OC(C)=O)[C@@H]1OC(C)=O [Compound I-9]	21.20	21.17	20.92	20.47	20.03	19.42	19.38	6.3	can gradually restore the colon length	–
CC(=O)OC[C@H]1O[C@@H](OC2=C(C)OC(=C3CCOCC3)C2=O)[C@H](OC(C)=O)[C@@H](OC(C)=O)[C@@H]1OC(C)=O [Compound I-10]	21.95	21.60	21.18	21.27	20.90	20.13	19.25	5.8	–	–
CC(=O)OC[C@H]1O[C@@H](OC2=C(C)OC(=C3CCNCC3)C2=O)[C@H](OC(C)=O)[C@@H](OC(C)=O)[C@@H]1OC(C)=O [Compound I-11]	21.62	21.30	21.10	20.97	20.32	19.93	19.30	6.2	can gradually restore the colon length	–
CC(=O)OC[C@H]1O[C@@H](OC2=C(C)OC(=C3CCN(C(C)=O)CC3)C2=O)[C@H](OC(C)=O)[C@@H](OC(C)=O)[C@@H]1OC(C)=O [Compound I-12]	21.25	21.22	21.13	20.62	20.10	16.32	18.88	5.7	–	–
O=C(O)c1cc(/N=N/c2ccc(S(=O)(=O)Nc3ccccn3)cc2)ccc1O [SASP, salazosulfapyridine, reference compound]	–	–	–	–	–	–	–	–	–	Average weight of mice ([1]; Day 1, positive control group 30 mg/kg oral gavage): 26.8 g; Average weight of mice ([1]; Day 2, positive control group 30 mg/kg oral gavage): 26.86 g; Average weight of mice ([1]; Day 3, positive control group 30 mg/kg oral gavage): 26.82 g; Average weight of mice ([1]; Day 4, positive control group 30 mg/kg oral gavage): 26.8 g; Average weight of mice ([1]; Day 5, positive control group 30 mg/kg oral gavage): 26.52 g; Average weight of mice ([1]; Day 6, positive control group 30 mg/kg oral gavage): 25.74 g; Average weight of mice ([1]; Day 7, positive control group 30 mg/kg oral gavage): 24.38 g; Average weight of mice ([1]; Day 8, positive control group 30 mg/kg oral gavage): 22.92 g; Average weight of mice ([1]; Day 9, positive control group 30 mg/kg oral gavage): 22.3 g; Average weight of mice ([1]; Day 10, positive control group 30 mg/kg oral gavage): 22.34 g; Average weight of mice ([1]; Day 11, positive control group 30 mg/kg oral gavage): 22.68 g; Average weight of mice ([1]; Day 12, positive control group 30 mg/kg oral gavage): 23.14 g; Average weight of mice ([1]; Day 13, positive control group 30 mg/kg oral gavage): 23.52 g; Average weight of mice ([1]; Day 14, positive control group 30 mg/kg oral gavage): 23.52 g; Average colon length of mice ([1]; positive control group 30 mg/kg oral gavage): 6.0 cm
